The text below walks through data of patent US9506933B2, “Method of preparing antigen for acquiring anti-hydrophobic peptide antibody” (TOAGOSEI CO., LTD., priority 2011, dated 2016).

Ends that are not written are not given here.

Common to all, as to type: physicochemical
Series [1] is described as follows: Particle size of FCG24 and FLF23 in 1% Tween 20 suspensions (Countess / dynamic light scattering). The conditions noted are these: 1% Tween 20 suspension; dynamic light scattering particle size analyser.
The nature of series [2]: Isoelectric point of SPAPP.
Series [3] in a line: Test of solubility of peptide SPAPP to various solvents (visual transparency). An excerpt:
(1) Powdered purified SPAPP was mixed with various solvents at various concentrations to examine solubility.
The term “soluble” used in the following description means a state in which solvent is visually transparent and “insoluble” means a state in which solvent is visually cloudy.

Series [4] is described as follows: Molecular size distribution of SPAPP in other nonionic surfactant solutions. The following applies: 1% PEG60 dodecyl ether, Triton X-100 or Nonidet P-40; surfactant added immediately or after 90 minutes. As to the method: It was examined whether SPAPP forms high-molecular-weight aggregates in other nonionic surfactant solutions. PEG60 dodecyl ether (Polypure), Triton X-100, and Nonidet P-40 were used as surfactants at 1% in each case. As was the case with the method of Example 2, each of the surfactants was used for preparing SPAPP suspension and, after the size fractionation using centrifugation and spin-type molecular weight cutoff filters, 10% SDS was added to and mixed with each of fractions to the final concentration of 1% to dissolve the aggregates. The peptide concentrations of the fractions were measured by the BCA assay and the molecular weight distribution of SPAPP aggregates were summarized as shown in FIGS. 6A and 6B. […] In the histograms, “Ppt” indicates peptides removed by centrifugation, i.e., precipitate, which is considered to have a size of 1 μm or larger and a molecular weight of several hundred kilodaltons or more. “>100 kDa” indicates 100 kDa or more and “<100 kDa” indicates 100 kDa or less.

A short description of series [5]: Molecular weight distribution of SPAPP aggregates (centrifugation, spin filters, BCA assay). As to the method:
The molecular weight distribution of SPAPP aggregates in the suspension was measured in accordance with the following procedure.
(i) The suspension was centrifuged at 15,000 rpm for five minutes and divided into supernatant and precipitate. This centrifugation causes particles equal to or larger than about 1 μm to precipitate.
(ii) The supernatant was applied to a molecular weight 100,000 cutoff spin filter (Amicon Microcon YM-100) and caused to pass through the filter by centrifugation.
(iii) The flow-through solution of (ii) was applied to a molecular weight 10,000 cutoff spin filter and caused to pass through the filter by centrifugation.
On each stage of the process described above, the protein concentration of the solution was measured by the BCA protein assay (Thermo Fisher Scientific) using BSA as the standard.
The time from suspension of SPAPP in pure water to addition of various surfactants was changed to confirm that the molecular size distribution of aggregates varies depending on the time. For example, in the case of 1% Tween 20, the insoluble fraction (precipitate) was 5% when the surfactants were added immediately after suspension of SPAPP in pure water, 17% when added after 1.5 hours, and 48% when added after 3 hours.

As for “FLFCWILMILVVLTFVVGANVEK (listed as Homo sapiens) [FLF23]”, in series [1], the particle size result was “particles with sizes larger than the signals of only the 1% Tween 20 solution were confirmed”.

In turn, MLPGLALLLLAAWTARA-OH [SPAPP] returned an isoelectric point in series [2] of 10.9. Also, the Solubility entry is on record as “Soluble” in series [3] (0.1% trifluoroacetic acid (pH 2.0), SPAPP conc. 7.5 mg/ml); “Soluble” in series [3] (1% Nonidet P40, SPAPP conc. 1~5 mg/ml); “Soluble” in series [3] (1% PEG12, SPAPP conc. 1~5 mg/ml); “Soluble” in series [3] (1% PEG24, SPAPP conc. 1~5 mg/ml); “Soluble” in series [3] (1% PEG60 docesylether, SPAPP conc. 1~5 mg/ml); “Soluble” in series [3] (1% SDS (anionic surfactant), SPAPP conc. 1~5 mg/ml). Moreover, the Solubility result is recorded as “Soluble” in series [3] (1% TritonX-100, SPAPP conc. 1~5 mg/ml); “Soluble” in series [3] (1% Tween20, SPAPP conc. 1~5 mg/ml); “Soluble” in series [3] (1% Tween80, SPAPP conc. 1~5 mg/ml); “Soluble” in series [3] (1% cholesterol-PEG (NOF CORPORATION NO. CS050), SPAPP conc. 1~5 mg/ml); “Soluble” in series [3] (1% formic acid (pH 3.0), SPAPP conc. 0.5 mg/ml); “Soluble” in series [3] (100% DMF, SPAPP conc. 20 mg/ml). Also, the Solubility entry is “Soluble” in series [3] (100% DMS0, SPAPP conc. 50 mg/ml); “Soluble” in series [3] (100% methanol, SPAPP conc. 0.5 mg/ml); “Insoluble” in series [3] (Phosphate buffer (PBS) (pH 7)); “Insoluble” in series [3] (Pure water, SPAPP conc. 0.1 mg/ml); “completely insoluble” in series [3] (neutral aqueous solutions); “soluble” in series [3] (neutral aqueous solutions containing polar and nonionic surfactants). Also, the Solubility entry in series [3] (polar organic solvents) and in series [3] (strongly acidic aqueous solutions) was “soluble” in each case. In series [4], the “formation of high-molecular-weight aggregates” value is recorded as “high-molecular-weight aggregates are formed with any of the surfactants”. Besides, the “insoluble fraction (precipitate)” value was found to be 17% in series [5] (1% Tween 20 added after 1.5 hours in pure water), 48% in series [5] (1% Tween 20 added after 3 hours in pure water) and 5% in series [5] (1% Tween 20 added immediately after suspension of SPAPP in pure water).
